Reference: publication PMC11521183 (Emerging Infectious Diseases, 2024)

Tested on: reference seasonal A(H3N2) viruses A/Louisiana/50/2017 and A/Louisiana/49/2017
Experiment: microbe, parasite or virus in culture
Assay type: cell-based, influenza A virus
Details: read-out: Mean EC50 + SD

O=C1c2c(O)c(=O)ccn2N([C@@H]2c3ccccc3SCc3c2ccc(F)c3F)[C@@H]2COCCN12 [baloxavir, baloxavir acid]
EC50: 14.1 nM
